# Results reported in US20160355483A1, “COMPOUND BINDING TO PPARG BUT NOT ACTING AS PROMOTER AND PHARMACEUTICAL COMPOSITION FOR TREATING PPARG-RELATED DISEASES CONTAINING SAME AS ACTIVE INGREDIENT” (Hyundai Pharm Co., Ltd., priority 2014, published 2016).
# Target: T1, PPARG (peroxisome proliferator activated receptor-gamma), GST-PPARG-LBD (Homo sapiens, UniProt P37231)
# T1 construct: 15 μL of 5 nM GST-PPARG-LBD and 5 nM Tb-GST-antibody were added; purchased Invitrogen PV4894
# T1 sequence (P37231 238-503 limits assumed): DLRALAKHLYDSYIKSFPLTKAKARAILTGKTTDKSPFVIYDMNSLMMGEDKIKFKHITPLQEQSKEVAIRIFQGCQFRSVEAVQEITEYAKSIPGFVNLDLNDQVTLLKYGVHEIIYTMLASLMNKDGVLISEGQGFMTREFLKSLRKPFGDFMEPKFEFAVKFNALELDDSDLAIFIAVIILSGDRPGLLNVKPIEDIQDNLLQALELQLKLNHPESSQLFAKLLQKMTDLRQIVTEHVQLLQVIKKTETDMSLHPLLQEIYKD
# Assay: LanthaScreen TR-FRET PPARG Competitive Binding Assay
# Parameters: key: “+” indicates the degree of the binding activity, and as the number of “+” increases, the binding activity is stronger; ++: “+” indicates the degree of the binding activity, and as the number of “+” increases, the binding activity is stronger; +++: “+” indicates the degree of the binding activity, and as the number of “+” increases, the binding activity is stronger; ++++: “+” indicates the degree of the binding activity, and as the number of “+” increases, the binding activity is stronger
# Conditions: degree of binding activity
# Description: The following experiment was performed to evaluate the PPARG (peroxisome proliferator activated receptor-gamma) binding capacity and transcriptional activity of the compounds prepared in the examples of the invention. For the experiment, LanthaScreen™ TR-FRET PPARG Competitive Binding Assay Kit (PV4894, Invitrogen) was used according to the manufacturer's instruction. […] The mixture was loaded in a 384-well plate (Greiner, 784075) by 20 μL per well, followed by reaction at room temperature for 1 hour. Upon completion of the reaction, fluorescence value was measured by using Flexstation 3 (Molecular Devices) with time-resolved fluorescence (RFU) mode (excitation 1: 340 nm, emission 1: 518 nm, excitation 2: 340 nm, emission 2: 488 nm, integration delay 50 μs, integration 400 μs). The results were calculated by using 518 nm RFUs/488 nm RFUs ratio. The activity of the compounds of the invention was compared with that of the vehicle, which was calculated by ratio according to the formula [100%−compound of the example ratio/vehicle ratio]. At this time, the binding activity ratio to rosiglitazone was compared.
row,SMILES,Binding assay (1 μLM)
1,"C[C@H](NC(=O)c1ccc2c(c1)CCCN2Cc1ccc(-c2ccccc2C(=O)O)cc1)c1ccccc1 [Example 1, (S)-4′-((6-((1-phenylethyl)carbamoyl)-3,4-dihydroquinoline-1(2H)-yl)methyl)-[1,1′-biphenyl]-2-carboxylic acid]",+++
2,"C[C@H](NC(=O)c1ccc2c(c1)CCCN2Cc1ccc(-c2ccccc2C(N)=O)cc1)c1ccccc1 [Example 2, (S)-1-((2′-carbamoyl-[1,1′-biphenyl]-4-yl)methyl)-N-(1-phenylethyl)-1,2,3,4-tetrahydroquinoline-6-carboxamide]",+++
3,"C[C@H](NC(=O)c1ccc2c(c1)CCCN2Cc1ccc(-c2ccccc2C(=O)O)cc1)c1ccc([N+](=O)[O-])cc1 [Example 3, (S)-4′-((6-((1-(4-nitrophenyl)ethyl)carbamoyl)-3,4-dihydroquinoline-1(2H)-yl)methyl)-[1,1′-biphenyl]-2-caboxylic acid]",+
4,"Cc1cc(F)ccc1[C@H](C)NC(=O)c1ccc2c(c1)CCCN2Cc1ccc(-c2ccccc2C(=O)O)cc1 [Example 4, (S)-4′-((6-((1-(4-fluoro-2-methylphenyl)ethyl)carbamoyl)-3,4-dihydroquinoline-1(2H)-yl)methyl)-[1,1′-biphenyl]-2-carboxylic acid]",+++
5,"Cc1ccc([C@H](C)NC(=O)c2ccc3c(c2)CCCN3Cc2ccc(-c3ccccc3C(=O)O)cc2)cc1F [Example 5, (S)-4′-((6-((1-(3-fluoro-4-methylphenyl)ethyl)carbamoyl)-3,4-dihydroquinoline-1(2H)-yl)methyl)-[1,1′-biphenyl]-2-caboxylic acid]",++
6,"C[C@H](NC(=O)c1ccc2c(c1)CCCN2Cc1ccc(-c2ccccc2C(=O)O)cc1)c1ccc(F)cc1 [Example 6, (S)-4′-((6-((1-(4-fluorophenyl)ethyl)carbamoyl)-3,4-dihydroquinoline-1(2H)-yl)methyl)-[1,1′-biphenyl]-2-caboxylic acid]",+++
7,"C[C@H](NC(=O)c1ccc2c(c1)CCCN2Cc1ccc(-c2ccccc2C(=O)O)cc1)c1ccc(Br)cc1 [Example 7, (S)-4′-((6-((1-(4-bromophenyl)ethyl)carbamoyl)-3,4-dihydroquinoline-1(2H)-yl)methyl)-[1,1′-biphenyl]-2-caboxylic acid]",++++
8,"O=C(NCc1ccc([N+](=O)[O-])cc1)c1ccc2c(c1)CCCN2Cc1ccc(-c2ccccc2C(=O)O)cc1 [Example 8, 4′-((6-((4-nitrobenzyl)carbamoyl)-3,4-dihydroquinoline-1(2H)-yl)methyl)-[1,1′-biphenyl]-2-carboxylic acid]",+++
9,"C[C@H](NC(=O)c1ccc2c(c1)CCCN2Cc1ccc(-c2ccccc2C(=O)O)cc1)c1cccc(Cl)c1 [Example 9, (S)-4′-((6-((1-(3-chlorophenyl)ethyl)carbamoyl)-3,4-dihydroquinoline-1(2H)-yl)methyl)-[1,1′-biphenyl]-2-caboxylic acid]",++++
10,"C[C@H](NC(=O)c1ccc2c(c1)CCCN2Cc1ccc(-c2ccccc2C(=O)O)cc1)c1cccc2ccccc12 [Example 10, (S)-4′-((6-((1-(naphthalene-1-yl)ethyl)carbamoyl)-3,4-dihydroquinoline-1(2H)-yl)methyl)-[1,1′-biphenyl]-2-carboxylic acid]",+++
11,"C[C@H](NC(=O)c1ccc2c(c1)CCCN2Cc1ccc(-c2ccccc2C(=O)O)cc1)c1ccc(OC(F)(F)F)cc1 [Example 11, (s)-4′-((6-((1-(4-(trifluoromethoxy)phenyl)ethyl)carbamoyl)-3,4-dihydroquinoline-1(2H)-yl)methyl)-[1,1′-biphenyl]-2-carboxylic acid]",++++
12,"C[C@H](NC(=O)c1ccc2c(c1)CCCN2Cc1ccc(-c2ccccc2C(=O)O)cc1)c1ccc(C(F)(F)F)cc1 [Example 12, (S)-4′-((6-((1-(4-(trifluoromethyl)phenyl)ethyl)carbamoyl)-3,4-dihydroquinoline-1(2H)-yl)methyl)-[1,1′-biphenyl]-2-carboxylic acid]",++++
13,"C[C@H](NC(=O)c1ccc2c(c1)CCCN2Cc1ccc(-c2ccccc2C(=O)O)cc1)c1ccc(SC(F)(F)F)cc1 [Example 13, (S)-4′-((6-((1-(4-((trifluoromethyl)thio)phenyl)ethyl)carbamoyl)-3,4-dihydroquinoline-1 (2H)-yl)methyl)-[1,1′-biphenyl]-2-carboxylic acid]",++++
14,"O=C(NC1COc2ccccc2C1)c1ccc2c(c1)CCCN2Cc1ccc(-c2ccccc2C(=O)O)cc1 (stereo not shown) [Example 15, 4′-((6-(cromene-3-ylcarbamoyl)-3,4-dihydroquinoline-1(2H)-yl)methyl)-[1,1′-biphenyl]-2-carboxylic acid]",+
15,"C[C@H](NC(=O)c1ccc2c(c1)CCCN2Cc1ccc(-c2ccccc2C(=O)O)cc1)c1c(F)cccc1F [Example 16, (S)-4′-((6-((1-(2,6-fluorophenyl)ethyl)carbamoyl)-3,4-dihydroquinoline-1 (2H)-yl)methyl)-[1,1′-biphenyl]-2-carboxylic acid]",+++
16,"C[C@H](NC(=O)c1ccc2c(c1)CCCN2Cc1ccc(-c2ccccc2C(=O)O)cc1)c1cccc(F)c1 [Example 17, (S)-4′-((6-((1-(3-fluorophenyl)ethyl)carbamoyl)-3,4-dihydroquinoline-1(2H)-yl)methyl)-[1,1′-biphenyl]-2-caboxylic acid]",+++
17,"C[C@H](NC(=O)c1ccc2c(c1)CCCN2Cc1ccc(-c2ccccc2C(=O)O)cc1)c1cccc(OC(F)(F)F)c1 [Example 18, (S)-4′-((6-((1-(3-(trifluoromethoxy)phenyl)ethyl)carbamoyl)-3,4-dihydroquinoline-1(2H)-yl)methyl)-[1,1′-biphenyl]-2-carboxylic acid]",+++
18,"C[C@H](NC(=O)c1ccc2c(c1)CCCN2Cc1ccc(-c2ccccc2C(=O)O)cc1)c1cccc(C(F)(F)F)c1 [Example 19, (S)-4′-((6-((1-(3-(trifluoromethyl)phenyl)ethyl)carbamoyl)-3,4-dihydroquinoline-1(2H)-yl)methyl)-[1,1′-biphenyl]-2-carboxylic acid]",+++
19,"C[C@H](NC(=O)c1ccc2c(c1)CCCN2Cc1ccc(-c2ccccc2C(=O)O)cc1)c1ccc2ccccc2c1 [Example 20, (S)-4′-((6-((1-(naphthalene-2-yl)ethyl)carbamoyl)-3,4-dihydroquinoline-1(2H)-yl)methyl)-[1,1′-biphenyl]-2-carboxylic acid]",++++
20,"C[C@H](NC(=O)c1ccc2c(c1)CCCN2Cc1ccc(-c2ccccc2C(=O)O)cc1)c1ccc(F)c(F)c1 [Example 21, (S)-4′-((6-((1-(3,4-fluorophenyl)ethyl)carbamoyl)-3,4-dihydroquinoline-1 (2H)-yl)methyl)-[1,1′-biphenyl]-2-carboxylic acid]",+++
21,"COc1cccc([C@H](C)NC(=O)c2ccc3c(c2)CCCN3Cc2ccc(-c3ccccc3C(=O)O)cc2)c1 [Example 22, (S)-4′-((6-((1-(3-methoxyphenyl)ethyl)carbamoyl)-3,4-dihydroquinoline-1(2H)-yl)methyl)-[1,1′-biphenyl]-2-caboxylic acid]",+++
22,"COc1ccccc1[C@H](C)NC(=O)c1ccc2c(c1)CCCN2Cc1ccc(-c2ccccc2C(=O)O)cc1 [Example 23, (S)-4′-((6-((1-(2-methoxyphenyl)ethyl)carbamoyl)-3,4-dihydroquinoline-1(2H)-yl)methyl)-[1,1′-biphenyl]-2-carboxylic acid]",+++
23,"C[C@H](NC(=O)c1ccc2c(c1)CCCN2Cc1ccc(-c2ccccc2C(=O)O)cc1)c1ccccc1F [Example 24, (S)-4′-((6-((1-(2-fluorophenyl)ethyl)carbamoyl)-3,4-dihydroquinoline-1(2H)-yl)methyl)-[1,1′-biphenyl]-2-caboxylic acid]",+++
24,"C[C@H](NC(=O)c1ccc2c(c1)CCCN2Cc1ccc(-c2ccccc2C(=O)O)cc1)c1ccccc1C(F)(F)F [Example 25, (S)-4′-((6-((1-(2-(trifluoromethyl)phenyl)ethyl)carbamoyl)-3,4-dihydroquinoline-1(2)-yl)methyl)-[1,1′-biphenyl]-2-carboxylic acid]",+++
25,"O=C(NCc1ccccn1)c1ccc2c(c1)CCCN2Cc1ccc(-c2ccccc2C(=O)O)cc1 [Example 26, 4′-((6-((pyridine-2-ylmethyl)carbamoyl)-3,4-dihydroquinoline-1(2H)-yl)methyl)-[1,1′-biphenyl]-2-carboxylic acid]",++
